The target of one experiment is T1, 5-HT1A receptors (Homo sapiens, UniProt P08908).
T1 sequence (P08908 1-422): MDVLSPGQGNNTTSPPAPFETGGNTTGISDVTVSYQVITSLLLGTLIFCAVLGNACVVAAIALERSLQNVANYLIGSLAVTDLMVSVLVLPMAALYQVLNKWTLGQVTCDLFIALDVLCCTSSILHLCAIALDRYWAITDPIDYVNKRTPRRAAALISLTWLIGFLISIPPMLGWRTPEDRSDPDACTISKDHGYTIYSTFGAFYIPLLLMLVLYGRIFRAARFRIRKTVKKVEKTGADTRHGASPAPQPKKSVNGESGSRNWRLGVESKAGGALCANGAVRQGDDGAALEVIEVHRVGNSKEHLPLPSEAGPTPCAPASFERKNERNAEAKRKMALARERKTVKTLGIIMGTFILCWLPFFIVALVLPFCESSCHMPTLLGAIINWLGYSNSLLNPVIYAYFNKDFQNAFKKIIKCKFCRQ
The experiment can be described thus: In vitro affinity test for 5-HT1A receptors. The following applies: conventional binding technique, read-out: Ki with respect to 5-HT1A receptors. On the procedure:
(§1) EXAMPLE 8: In vitro affinity test for endazoline, α1 and α2 and 5-HT receptors
(§2) The in vitro affinity tests for endazoline receptors were carried out according to a technique described by A. Parini et al. (Biochem. and Biophys. Res. Comm. 147(3), 1055, 1987), and according to conventional binding techniques for the other receptors.

Another experiment has as its target 5-HT1B receptors (Rattus norvegicus, UniProt P28564). The experiment can be described thus: In vitro affinity test for 5-HT1B receptors. The following applies: conventional binding technique, read-out: Ki with respect to 5-HT1B receptors. On the procedure:
as §1, §2

In a further experiment the target is T2, 5-HT3 receptors (Homo sapiens, UniProt P46098).
T2 sequence (P46098 24-478): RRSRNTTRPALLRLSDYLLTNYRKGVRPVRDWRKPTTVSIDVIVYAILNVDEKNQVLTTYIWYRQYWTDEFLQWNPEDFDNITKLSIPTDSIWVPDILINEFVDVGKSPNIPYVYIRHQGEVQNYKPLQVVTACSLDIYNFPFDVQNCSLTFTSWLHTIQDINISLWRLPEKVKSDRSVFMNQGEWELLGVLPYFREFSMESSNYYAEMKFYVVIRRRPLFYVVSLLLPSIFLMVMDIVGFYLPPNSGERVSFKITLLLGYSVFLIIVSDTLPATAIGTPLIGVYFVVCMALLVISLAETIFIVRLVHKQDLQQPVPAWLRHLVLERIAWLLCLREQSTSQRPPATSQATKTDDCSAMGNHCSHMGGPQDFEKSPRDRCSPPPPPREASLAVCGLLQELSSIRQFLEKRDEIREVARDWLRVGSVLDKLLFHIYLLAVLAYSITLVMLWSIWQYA
The experiment can be described thus: In vitro affinity test for 5-HT3 receptors. The note with it: conventional binding technique, read-out: Ki with respect to 5-HT3 receptors. On the procedure:
as §1, §2

In another experiment the target is 5 HT2 receptors (Homo sapiens, UniProt P28223). The experiment can be described thus: In vitro affinity test for 5-HT2 receptors. The following applies: conventional binding technique, read-out: Ki with respect to 5 HT2 receptors. On the procedure: as §1, §2

Results on one compound are retold here after patent US5296498A, “Guanidine compounds” (Adir et Compagnie, priority 1990, dated 1994).

Counter-ions that a name gives are not always drawn.

Chain of 5-HT1B receptors (P28564 whole entry): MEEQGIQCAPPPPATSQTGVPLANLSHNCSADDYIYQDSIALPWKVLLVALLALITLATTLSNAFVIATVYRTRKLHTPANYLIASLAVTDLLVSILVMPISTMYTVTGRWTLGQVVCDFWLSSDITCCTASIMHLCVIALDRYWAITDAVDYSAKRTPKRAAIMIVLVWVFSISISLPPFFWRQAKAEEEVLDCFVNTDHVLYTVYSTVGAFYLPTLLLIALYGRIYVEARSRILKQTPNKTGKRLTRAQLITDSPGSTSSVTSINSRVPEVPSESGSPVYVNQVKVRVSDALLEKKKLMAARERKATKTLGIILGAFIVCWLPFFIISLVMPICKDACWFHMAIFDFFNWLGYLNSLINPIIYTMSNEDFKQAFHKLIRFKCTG
Chain of 5 HT2 receptors (P28223 whole entry): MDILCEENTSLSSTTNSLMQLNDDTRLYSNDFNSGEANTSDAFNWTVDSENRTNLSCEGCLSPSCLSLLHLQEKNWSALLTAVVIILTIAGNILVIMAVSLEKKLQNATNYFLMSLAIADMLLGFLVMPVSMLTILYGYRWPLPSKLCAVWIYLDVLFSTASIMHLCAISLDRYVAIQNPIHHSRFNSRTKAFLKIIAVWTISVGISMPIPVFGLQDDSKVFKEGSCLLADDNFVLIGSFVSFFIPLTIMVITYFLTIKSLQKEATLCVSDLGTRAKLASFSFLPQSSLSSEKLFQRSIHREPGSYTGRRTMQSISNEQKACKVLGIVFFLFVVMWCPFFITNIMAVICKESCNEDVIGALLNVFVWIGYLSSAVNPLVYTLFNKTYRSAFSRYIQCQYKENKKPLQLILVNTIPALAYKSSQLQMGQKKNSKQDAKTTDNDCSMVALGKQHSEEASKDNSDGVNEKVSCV

As a reminder, the Ki is a dissociation constant, usually derived from enzyme kinetics or from competition with a known ligand. As for `N=C(N)NN=CC(C1CC1)C1CC1` [Example 2, (2,2-Dicyclopropylethylidene)aminoguanidine hydrochloride], the Ki on 5-HT1A receptors is roughly 10 µM; on 5-HT1B receptors it was roughly 100 µM; at 5-HT3 receptors, roughly 2 µM; on 5 HT2 receptors, roughly 20 µM.
